# Test results: patent US8653026B2, “Treatment of type 2 diabetes with FTY720” (Diapin Therapeutics LLC, priority 2011, dated 2014)
# What was measured:
# S1P4 = assay: S1P receptor expression in islets from db/db mice: S1P4; assay type: in vivo, mouse; details: after FTY720 treatment of db/db mice
# Description: (§1) FIG. 15. Expression of 4 FTY720-bound S1P receptors in the islets isolated from the db/db mice.
# (§2) FTY720 is phosphorylated in vivo to form FTY720-P that binds S1P1, S1P3, S1P4, and S1P5 but not S1P2 (25). We determined the expression of these receptors in the islets isolated from the untreated and FTY720-treated db/db mice.
# [1] = Body weight of db/db mice with or without oral FTY720; assay type: in vivo, mouse; details: FTY720-treated vs untreated group
# Method: FIG. 2B. Time course of the body weight of db/db mice with or without oral FTY720. Open circle (∘), FTY720-untreated group; solid circle (●), pre-diabetic db/db mice (Fasting glucose<126 mg/dL) at six-week-old treated with 10 mg/kg FTY720. […]
# Animals and Procedures—Five-week-old female db/db mice (BKS.Cg-m+/−Leprdb) were purchased from Jackson Laboratories (Bar Harbor, Me.). […] After 1 week, the fasting glucose levels of the 6-week-old mice were measured. […] Mice in the FTY720-treated group were fed 10 mg/kg of FTY720 daily by feeding tube and their food intake and body weight were measured twice a week. Fasting glucose levels were measured at the end of each week. […] After metabolic analysis, the pancreases were removed from the mice at 13 and 16 weeks of age for immunohistochemical analysis, quantitation of islet area, or islet isolation.
# PDX-1 = PDX-1 expression in isolated islets from db/db mice; assay type: in vivo, mouse; details: islets from FTY720-treated db/db mice
# Method: FIG. 14. PDX-1 expression in the isolated islets from the db/db mice with (+FTY720) or without FTY720 (−FTY720) treatment (*p=0.0006).
# (§3) Islets were isolated from pancreases removed from the 13-week-old untreated and FTY720-treated db/db mice by Liberase (Roche Diagnostics) digestion, followed by discontinuous Ficoll gradient separation and manual stereomicroscopic selection to exclude contaminating tissues (30). Isolated islets (or INS-1 cells) were cultured in the medium (composed of RPMI 1640 medium supplemented with 10% fetal bovine serum, 2 mM L-glutamine, 1% sodium pyruvate, 50 μM β-mercaptoethanol, 100 units/ml of penicillin, and 100 μg/ml of streptomycin). For treatment of INS-1 cells, the cells were plated in RPMI medium overnight and changed to Hanks' balanced salt solution containing 2 mM glucose and 0.5% FBS overnight. Then the cells were treated with various conditions in the same medium for 24 hours.
# Expression of pancreatic and duodenal homeobox 1 (PDX-1), a transcription factor, is required for pancreatic development and β-cell maturation.
# S1P3 = assay: S1P receptor expression in islets from db/db mice: S1P3; assay type: in vivo, mouse; details: after FTY720 treatment of db/db mice
# Description: as §1, §2
# Bcl-2 = Bcl-2 mRNA levels in islets of db/db mice; assay type: in vivo, mouse; details: islets from FTY720-treated db/db mice vs untreated
# Method: FIG. 10A. Levels of Bcl-2 mRNA levels of the db/db mice with (+FTY720) or without FTY720 (−FTY720) treatment. *p=0.0006
# as §3
# To determine the mechanism of action (MOA) behind the increase in beta-cell mass observed in the treated mice, beta-cell survival was examined.
# db/db mice [2] = assay: Fasting serum insulin levels (ELISA) in db/db mice; assay type: in vivo, mouse; details: FTY720-treated vs untreated, after overnight fasting
# Description: FIG. 4. Fasting serum insulin levels of the db/db mice with (+FTY720) or without FTY720 (−FTY720) treatment (*p<0.01).
# After overnight fasting, blood samples ([…]) were collected in a heparinized microhematocrit tube for the determination of insulin concentration using a Ultra Sensitive Mouse Insulin ELISA Kit (Crystal Chem Inc., Downers Grove, Ill.) (30).
# db/db mice [3] = assay: Weekly fasting blood glucose in db/db mice given oral FTY720; assay type: in vivo, mouse
# Method: FIG. 2A. Time course of the fasting glucose levels of db/db mice with or without oral FTY720. Open circle (∘), FTY720-untreated group; solid circle (●), pre-diabetic db/db mice (Fasting glucose<126 mg/dL) at six-week-old treated with 10 mg/kg FTY720; and triangle (▴), diabetic db/db mice (Fasting glucose≅430 mg/dL) at nine-week-old treated with 10 mg/kg FTY720 (n=4). I, Fasting glucose of mice at the age of 6 weeks to 12 weeks at the daily dosage of 10 mg/kg FTY720 (n=20 for the control and FTY720 treated pre-diabetic mice, respectively); II, fasting glucose levels of mice at the age of 12 weeks to 20 weeks at the daily dosage of 10 mg/kg FTY720 (n=6 for the control and FTY720 treated mice, respectively); III, fasting glucose levels of mice at the age of 20 weeks to 29 weeks at the […] dosage of 10 mg/kg FTY720 (n=2 for control and FTY720 treated mice, respectively); IV, fasting glucose levels from the mouse without FTY720 treatment after age of 29 weeks (n=2 for control and FTY720 treated mice, respectively).
# Animals and Procedures—Five-week-old female db/db mice (BKS.Cg-m+/−Leprdb) were purchased from Jackson Laboratories (Bar Harbor, Me.). Mice were housed under controlled light (12 h light/12 h dark) and temperature conditions, and had free access to food (normal rodent chow) and water. All procedures were conducted in accordance with the guidelines on Animal Care and were approved by the Institutional Animal Care and Use Committee (IACUC) of Mount Sinai School of Medicine. After 1 week, the fasting glucose levels of the 6-week-old mice were measured. Mice with normal glucose levels (<126 mg/dl) were randomly divided into control and FTY720 treatment groups. Mice in the FTY720-treated group were fed 10 mg/kg of FTY720 daily by feeding tube and their food intake and body weight were measured twice a week. Fasting glucose levels were measured at the end of each week. At 12 weeks of age (when the mice had been treated for 6 weeks), all mice were subjected to metabolic analysis. After metabolic analysis, the pancreases were removed from the mice at 13 and 16 weeks of age for immunohistochemical analysis, quantitation of islet area, or islet isolation.
# To rigorously determine the effects of FTY720 in vivo, pre-diabetic (age of six weeks, fasting glucose<126 mg/dL) and diabetic (age of 8-9 weeks, fasting glucose=430 mg/dL) female db/db mice were fed daily with FTY720 (+FTY720) for 29 weeks, and monitored by weekly fasting blood glucose measurements.
# pancreatic cancer cells = details: concentrations identical to this study (10 mg/kg), reportedly; cited from earlier work
smiles,measurement,setting,value
"CCCCCCCCc1ccc(CCC(N)(CO)CO)cc1 [FTY720, 2-amino-2-[2-(4-octylphenyl)ethyl]propane-1,3-diol]",S1P4 expression in islets,S1P4,significantly elevated
same,weight gain,[1],significantly higher
same,PDX-1 expression relative to islets from untreated mice,PDX-1,6 fold
same,S1P3 expression in islets,S1P3,significantly elevated
same,Bcl-2 mRNA levels,Bcl-2,significantly increased
same,fasting serum insulin levels,db/db mice [2],significantly elevated
same,distribution of fasting glucose levels,"db/db mice [3]; all FTY720-treated db/db mice, after 6 weeks treatment",normalized
same,fasting glucose levels after FTY720 administration was ceased,"db/db mice [3]; db/db mice, administration ceased completely after 29-weeks treatment",well controlled
same,fasting glucose levels,"db/db mice [3]; diabetic db/db mice (glucose ≧350 mg/dL), after six weeks of oral FTY720 10 mg/kg",became normal
same,fasting glucose levels (screen),db/db mice [3]; i.p. injected into or orally administrated to db/db mice,capable of normalizing
same,fasting glucose levels,"db/db mice [3]; pre-diabetic db/db mice (six weeks old, fasting glucose <126 mg/dL), 10 mg/kg FTY720 oral daily, untreated about 500 mg/dL by age 12 weeks",~126 mg/dL
same,"growth, migration, and invasion of pancreatic cancer cells",pancreatic cancer cells,inhibit
